Data: patent publication US20180093956A1, “SUBSTITUTED PHTHALAZINES” (AbbVie Inc., priority 2015, published 2018)

Target: SUV420H1 enzyme (Homo sapiens, UniProt Q4FZB7)
Assay: TR-FRET SAH SUV420H1 enzyme inhibition assay
Assay type: biochemical
Conditions: Histone Peptide H4(8-30)me1 and SAM, TR-FRET detection of SAH, read-out: TR-FRET SAH_SUV420H1 IC50
Protocol: Test compounds were dispensed by a Labcyte Echo in 384-well low volume assay plates with 3-fold serial dilutions from 50 μM to 0.00075 μM. 5 μL of SUV420H1 enzyme (Abbvie) at 90 nM was added to all wells except for the no enzyme control wells and incubated for 30 minutes at room temperature before 5 μL of Histone Peptide H4(8-30)me1 (Anaspec) at 5 μM and SAM at 4 μM was added to all wells. The plates were incubated in a humidified chamber overnight at room temp and then 10 μL of the detection reagent that contained RIPA buffer (50 mM Tris-HCl, pH 8.0, 150 mM sodium chloride, 1.0% Igepal CA-630 (NP-40), 0.5% sodium deoxycholate and 0.1% sodium dodecyl sulfate) (Sigma) with 2 nM of Terbium chelate anti S-adenosyl-L-homocysteine (SAH) (Abbvie) antibody and Oregon Green labeled SAH at 4 nM was added. The plates were further incubated for 4 hours at room temperature. The plates were read in a Perkin Elmer Envision using a TR-FRET protocol with Excitation set at 335 nm and Emission at 520 and 495 nm. To generate dose response curves the data is normalized to percent inhibition by setting the average of the plus and minus enzyme control wells to 0% and 100% inhibition respectively. The ICso values for the compounds are generated by fitting the normalized data with Accelrys Assay Explorer 3.3 to a sigmoidal curve model using […], Y=(100*x^n)/(K^n+x^n), where Y is the measured response, x is the compound concentration, n is the Hill Slope and K is the IC50 and the lower and higher asymptotes are constrained to 0 and 100 respectively.

Chain of SUV420H1 enzyme (Q4FZB7 whole entry): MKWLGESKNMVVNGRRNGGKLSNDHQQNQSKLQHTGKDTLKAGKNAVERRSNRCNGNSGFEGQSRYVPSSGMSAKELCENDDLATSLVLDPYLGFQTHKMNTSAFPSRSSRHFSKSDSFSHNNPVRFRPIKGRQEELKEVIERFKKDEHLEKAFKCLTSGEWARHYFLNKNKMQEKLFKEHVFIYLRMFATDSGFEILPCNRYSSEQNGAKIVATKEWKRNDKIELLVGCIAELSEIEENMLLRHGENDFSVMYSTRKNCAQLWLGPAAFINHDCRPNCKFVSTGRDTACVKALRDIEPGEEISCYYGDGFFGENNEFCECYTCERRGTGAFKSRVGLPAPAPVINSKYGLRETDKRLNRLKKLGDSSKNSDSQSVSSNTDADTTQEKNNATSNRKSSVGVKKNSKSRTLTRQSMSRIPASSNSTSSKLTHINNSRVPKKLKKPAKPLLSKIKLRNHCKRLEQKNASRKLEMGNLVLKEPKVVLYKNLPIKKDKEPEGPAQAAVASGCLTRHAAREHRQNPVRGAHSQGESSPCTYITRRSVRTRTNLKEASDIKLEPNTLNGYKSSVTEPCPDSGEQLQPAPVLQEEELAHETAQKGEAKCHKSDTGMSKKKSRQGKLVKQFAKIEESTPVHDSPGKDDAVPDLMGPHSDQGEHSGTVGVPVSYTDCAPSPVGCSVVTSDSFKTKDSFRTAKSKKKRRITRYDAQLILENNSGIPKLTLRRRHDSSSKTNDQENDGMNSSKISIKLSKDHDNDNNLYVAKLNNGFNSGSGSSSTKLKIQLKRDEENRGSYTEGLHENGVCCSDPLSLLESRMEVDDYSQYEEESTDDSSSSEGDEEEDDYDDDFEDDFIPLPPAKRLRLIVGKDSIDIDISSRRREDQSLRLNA

Compound	IC50
O=C1CCC(C(=O)N2CC=C(c3nnc(NC4CCCC4)c4cc(Cl)c(Cl)cc34)CC2)C1 (stereo not drawn) [Example 81, 3-({4-[6,7-dichloro-4-(cyclopentylamino)phthalazin-1-yl]-3,6-dihydropyridin-1(2H)-yl}carbonyl)cyclopentanone]	2.23 µM
O=C(Cn1cc(-c2nnc(NC3CCCC3)c3cc(Cl)c(Cl)cc23)cn1)N1CCCC1 [Example 58, 2-{4-[6,7-dichloro-4-(cyclopentylamino)phthalazin-1-yl]-1H-pyrazol-1-yl}-1-(pyrrolidin-1-yl)ethanone]	6.01 µM
O=C(Nc1ccccc1)c1nnc(NC2CCCC2)c2cc(Cl)c(Cl)cc12 [Example 53, 6,7-dichloro-4-(cyclopentylamino)-N-phenylphthalazine-1-carboxamide]	1.34 µM
Clc1cc2c(NC3CCCC3)nnc(-c3ccc(N4CCNCC4)nc3)c2cc1Cl [Example 27, 6,7-dichloro-N-cyclopentyl-4-[6-(piperazin-1-yl)pyridin-3-yl]phthalazin-1-amine]	1.32 µM
CN1CCN(c2ccc(-c3nnc(NC4CCCC4)c4cc(Cl)c(Cl)cc34)cn2)CC1 [Example 21, 6,7-dichloro-N-cyclopentyl-4-[6-(4-methylpiperazin-1-yl)pyridin-3-yl]phthalazin-1-amine]	1.46 µM
Clc1cc2c(NC3CCCC3)nnc(-c3ccnc(N4CCOCC4)c3)c2cc1Cl [Example 17, 6,7-dichloro-N-cyclopentyl-4-[2-(morpholin-4-yl)pyridin-4-yl]phthalazin-1-amine]	7.38 µM
CN1CCN(c2cc(-c3nnc(NC4CCCC4)c4cc(Cl)c(Cl)cc34)ccn2)CC1 [Example 16, 6,7-dichloro-N-cyclopentyl-4-[2-(4-methylpiperazin-1-yl)pyridin-4-yl]phthalazin-1-amine]	8.35 µM
CN(C)c1cc(-c2nnc(NC3CCCC3)c3cc(Cl)c(Cl)cc23)ccn1 [Example 32, 6,7-dichloro-N-cyclopentyl-4-[2-(dimethylamino)pyridin-4-yl]phthalazin-1-amine]	11.2 µM
Clc1cc2c(NC3CCCC3)nnc(-c3ccnc(N4CCCC4)c3)c2cc1Cl [Example 15, 6,7-dichloro-N-cyclopentyl-4-[2-(pyrrolidin-1-yl)pyridin-4-yl]phthalazin-1-amine]	> 50 µM
6,7-dichloro-4-(cyclopentylamino)phthalazine-1-carboxylic acid [Example 38]	8.68 µM
CN(CCO)C(=O)c1nnc(NC2CCCC2)c2cc(Cl)c(Cl)cc12 [Example 46, 6,7-dichloro-4-(cyclopentylamino)-N-(2-hydroxyethyl)-N-methylphthalazine-1-carboxamide]	5.46 µM
OC1CCN(c2ccc(-c3nnc(NC4CCCC4)c4cc(Cl)c(Cl)cc34)cn2)C1 (stereo not drawn) [Example 34, 1-{5-[6,7-dichloro-4-(cyclopentylamino)phthalazin-1-yl]pyridin-2-yl}pyrrolidin-3-ol]	2.73 µM
CC(C)(C)OC(=O)N1CC=C(c2nnc(NC3CCCC3)c3cc(Cl)c(Cl)cc23)CC1 [Example 23, tert-butyl 4-[6,7-dichloro-4-(cyclopentylamino)phthalazin-1-yl]-3,6-dihydropyridine-1(2H)-carboxylate]	1.51 µM
O=C(c1nnc(NC2CCCC2)c2cc(Cl)c(Cl)cc12)N1CCC(O)C1 (stereo not drawn) [Example 48, [6,7-dichloro-4-(cyclopentylamino)phthalazin-1-yl](3-hydroxypyrrolidin-1-yl)methanone]	4.16 µM
Clc1cc2c(NC3CCCC3)nnc(C3=CCNCC3)c2cc1Cl [Example 24, 6,7-dichloro-N-cyclopentyl-4-(1,2,3,6-tetrahydropyridin-4-yl)phthalazin-1-amine]	1.28 µM
NC(=O)CC(=O)N1CC=C(c2nnc(NC3CCCC3)c3cc(Cl)c(Cl)cc23)CC1 [Example 83, 3-{4-[6,7-dichloro-4-(cyclopentylamino)phthalazin-1-yl]-3,6-dihydropyridin-1(2H)-yl}-3-oxopropanamide]	0.816 µM
O=C(c1nnc(NC2CCCC2)c2cc(Cl)c(Cl)cc12)N1CCS(=O)(=O)CC1 [Example 50, [6,7-dichloro-4-(cyclopentylamino)phthalazin-1-yl](1,1-dioxidothiomorpholin-4-yl)methanone]	5.06 µM
OCCNc1cc(-c2nnc(NC3CCCC3)c3cc(Cl)c(Cl)cc23)ccn1 [Example 39, 2-({4-[6,7-dichloro-4-(cyclopentylamino)phthalazin-1-yl]pyridin-2-yl}amino)ethanol]	3.49 µM
O=C(c1nnc(NC2CCCC2)c2cc(Cl)c(Cl)cc12)N1CCOCC1 [Example 51, [6,7-dichloro-4-(cyclopentylamino)phthalazin-1-yl](morpholin-4-yl)methanone]	8.21 µM
Clc1cc2c(NC3CCCC3)nnc(N3CCCC3)c2cc1Cl [Example 11, 6,7-dichloro-N-cyclopentyl-4-(pyrrolidin-1-yl)phthalazin-1-amine]	> 50 µM
O[C@@H]1CC[C@H](Nc2nnc(Cl)c3cc(Cl)c(Cl)cc23)C1 (racemic) [Example 13, rac-(1R,3S)-3-[(4,6,7-trichlorophthalazin-1-yl)amino]cyclopentanol]	2.63 µM
Fc1cc(-c2nnc(NC3CCCC3)c3cc(Cl)c(Cl)cc23)ccn1 [Example 12, 6,7-dichloro-N-cyclopentyl-4-(2-fluoropyridin-4-yl)phthalazin-1-amine]	0.827 µM
CC(=O)N1CC=C(c2nnc(NC3CCCC3)c3cc(Cl)c(Cl)cc23)CC1 [Example 25, 1-{4-[6,7-dichloro-4-(cyclopentylamino)phthalazin-1-yl]-3,6-dihydropyridin-1(2H)-yl}ethanone]	1.1 µM
Clc1cc2c(NC3CCCC3)nnc(-c3ccc(N4CCCC4)nc3)c2cc1Cl [Example 31, 6,7-dichloro-N-cyclopentyl-4-[6-(pyrrolidin-1-yl)pyridin-3-yl]phthalazin-1-amine]	2.74 µM

More lines, now with the values ahead:

IC50	Compound
0.448 µM	CS(=O)(=O)N1CC=C(c2nnc(NC3CCCC3)c3cc(Cl)c(Cl)cc23)CC1 [Example 67, 6,7-dichloro-N-cyclopentyl-4-[1-(methylsulfonyl)-1,2,3,6-tetrahydropyridin-4-yl]phthalazin-1-amine]
0.766 µM	O=C(Cn1cc(-c2nnc(NC3CCCC3)c3cc(Cl)c(Cl)cc23)cn1)N1CCC(O)C1 (stereo not drawn) [Example 59, 2-{4-[6,7-dichloro-4-(cyclopentylamino)phthalazin-1-yl]-1H-pyrazol-1-yl}-1-(3-hydroxypyrrolidin-1-yl)ethanone]
0.453 µM	O=S(=O)(C1CC1)N1CC=C(c2nnc(NC3CCCC3)c3cc(Cl)c(Cl)cc23)CC1 [Example 68, 6,7-dichloro-N-cyclopentyl-4-[1-(cyclopropylsulfonyl)-1,2,3,6-tetrahydropyridin-4-yl]phthalazin-1-amine]
0.572 µM	OC1CCN(c2ccc(-c3nnc(NC4CCCC4)c4cc(Cl)c(Cl)cc34)cn2)CC1 [Example 28, 1-{5-[6,7-dichloro-4-(cyclopentylamino)phthalazin-1-yl]pyridin-2-yl}piperidin-4-ol]
0.208 µM	O=C(Cn1cc(-c2nnc(NC3CCCC3)c3cc(Cl)c(Cl)cc23)cn1)N1CCS(=O)(=O)CC1 [Example 63, 2-{4-[6,7-dichloro-4-(cyclopentylamino)phthalazin-1-yl]-1H-pyrazol-1-yl}-1-(1,1-dioxidothiomorpholin-4-yl)ethanone]
0.688 µM	O=C(C1CCC(O)C1)N1CC=C(c2nnc(NC3CCCC3)c3cc(Cl)c(Cl)cc23)CC1 (stereo not drawn) [Example 84, {4-[6,7-dichloro-4-(cyclopentylamino)phthalazin-1-yl]-3,6-dihydropyridin-1(2H)-yl}(3-hydroxycyclopentyl)methanone]
0.551 µM	O=C(Cn1cc(-c2nnc(NC3CCCC3)c3cc(Cl)c(Cl)cc23)cn1)N1CCOCC1 [Example 65, 2-{4-[6,7-dichloro-4-(cyclopentylamino)phthalazin-1-yl]-1H-pyrazol-1-yl}-1-(morpholin-4-yl)ethanone]
0.681 µM	CS(=O)(=O)CC(=O)N1CC=C(c2nnc(NC3CCCC3)c3cc(Cl)c(Cl)cc23)CC1 [Example 82, 1-{4-[6,7-dichloro-4-(cyclopentylamino)phthalazin-1-yl]-3,6-dihydropyridin-1(2H)-yl}-2-(methylsulfonyl)ethanone]
0.805 µM	O=S1(=O)CCN(c2ccc(-c3nnc(NC4CCCC4)c4cc(Cl)c(Cl)cc34)cn2)CC1 [Example 41, 6,7-dichloro-N-cyclopentyl-4-[6-(1,1-dioxidothiomorpholin-4-yl)pyridin-3-yl]phthalazin-1-amine]
0.197 µM	CCNC(=O)c1nnc(NC2CCCC2)c2cc(Cl)c(Cl)cc12 [Example 45, 6,7-dichloro-4-(cyclopentylamino)-N-ethylphthalazine-1-carboxamide]
0.808 µM	CN(CCO)c1cc(-c2nnc(NC3CCCC3)c3cc(Cl)c(Cl)cc23)ccn1 [Example 35, 2-[{4-[6,7-dichloro-4-(cyclopentylamino)phthalazin-1-yl]pyridin-2-yl}(methyl)amino]ethanol]
0.255 µM	O=C(O)Cn1cc(-c2nnc(NC3CCCC3)c3cc(Cl)c(Cl)cc23)cn1 [Example 44, {4-[6,7-dichloro-4-(cyclopentylamino)phthalazin-1-yl]-1H-pyrazol-1-yl}acetic acid]
